Test results taken from article PMC5062470, “The mGluR2 positive allosteric modulator, SAR218645, improves memory and attention deficits in translational models of cognitive symptoms associated with schizophrenia” (Scientific Reports, 2016).

Legend:
Swiss mice = assay: Amphetamine-induced locomotor hyperactivity; assay type: in vivo
Method: An actimeter device consisting of a cylinder (20 cm diameter, 9.5 cm height, Apelex, France) equipped with two perpendicular light beams located 1.5 cm above the floor was used. Mice from the transgenic batches (DAT^−/− and NMDA Nr1^neo−/−) were orally pretreated with either SAR218645 or vehicle and individually isolated in boxes for a period of 60 min. Animals were then placed in the actimeter device and locomotor activity (number of interrupted light beams) was recorded for a period of 30 or 60 min. Mice in which the expression of the dopamine transporter (DAT) was knocked out (i.e., the DAT^−/− mouse) have been proposed as a reliable model of the positive symptoms of schizophrenia. In these mice, dopamine levels in the synapse are dramatically elevated and these animals are hyperactive and agitated in behavioral tests. […] Immediately following amphetamine challenge, 30 min after MK-801 challenge, mice were placed in the actimeter devices and locomotor activity was recorded for a period of 30 (DAT^−/−) or 60 (NMDA Nr1^neo−/−) min.
Statistical analyses were performed using SAS V8.2 software (SAS Institute, Cary, NC, USA). The number of light beam breaks (motility count) recorded for 30 or 60 min were analyzed using one-way ANOVAs using a fixed factor of challenge or genotype and complementary post hoc (Newman-Keuls) tests were performed. […]

OF1 mice = assay: Maximal electroshock seizure (MES) test; assay type: in vivo
Method: SAR218645 (30 mg/kg, po) and the reference anticonvulsant agent, diazepam (10 mg/kg), were administered ip to OF1 mice (12–14 g) 30 min prior to test, respectively. An electrical stimulus (60 Hz, 0.8 ms rectangular pulse, 0.4 s duration, 50 mA) was applied to both corneas. The occurrence of tonic extension of the hindlimbs was noted.

C57BL/6J mice = assay: Amphetamine-induced disruption of latent inhibition (LI); assay type: in vivo; settings: dose-range 0.1–10, po
Method: The procedure was based on that described by Lipina et al.[39]. Briefly, male C57BL/6J mice (20–30 g, 6–8-week-old) were water restricted and trained to drink in an operant chamber for 15 min over 5 daily sessions. The LI procedure was completed in the following stages each given 24 h apart: (a) Pre-exposure: The preexposed (PE) animals received 40, 85-dB white noise presentations in the chamber for 50 min; the non-preexposed (NPE) animals were confined to the chamber for the same period but without the presence of the tone. (b) Conditioning: All mice received 2 tone-shock (1 s, 0.37 mA) pairings in the chamber. (c) Test: Each mouse was placed in the chamber and allowed to drink. After completing 75 licks, the white noise was presented and lasted until the mouse completed 100 licks. For data analysis, the time during 50–75 licks (A period) and the time to complete licks 76–100 (after tone onset; B period) was calculated into a suppression ratio defined as A/(A+B). A low suppression ratio indicates a stronger suppression of drinking. LI is defined as an […] in suppression ratio (little or no suppression), whereas a shorter time to complete licks 76–100 of the pre-exposed mice compared to the non-pre-exposed mice. Data (i.e. suppression ratio) were analyzed using the Friedman nonparametric two-way ANOVA model. […]

human mGluR6 = molecular target: T1, human mGluR6 (Homo sapiens, UniProt O15303); assay: Multispan Allosteric Profiling panel, Ca2+ (Gqi5); assay type: cell-based
T1 construct: host or cells: HEK293 co-expressing Gqi5
T1 sequence (O15303 25-877): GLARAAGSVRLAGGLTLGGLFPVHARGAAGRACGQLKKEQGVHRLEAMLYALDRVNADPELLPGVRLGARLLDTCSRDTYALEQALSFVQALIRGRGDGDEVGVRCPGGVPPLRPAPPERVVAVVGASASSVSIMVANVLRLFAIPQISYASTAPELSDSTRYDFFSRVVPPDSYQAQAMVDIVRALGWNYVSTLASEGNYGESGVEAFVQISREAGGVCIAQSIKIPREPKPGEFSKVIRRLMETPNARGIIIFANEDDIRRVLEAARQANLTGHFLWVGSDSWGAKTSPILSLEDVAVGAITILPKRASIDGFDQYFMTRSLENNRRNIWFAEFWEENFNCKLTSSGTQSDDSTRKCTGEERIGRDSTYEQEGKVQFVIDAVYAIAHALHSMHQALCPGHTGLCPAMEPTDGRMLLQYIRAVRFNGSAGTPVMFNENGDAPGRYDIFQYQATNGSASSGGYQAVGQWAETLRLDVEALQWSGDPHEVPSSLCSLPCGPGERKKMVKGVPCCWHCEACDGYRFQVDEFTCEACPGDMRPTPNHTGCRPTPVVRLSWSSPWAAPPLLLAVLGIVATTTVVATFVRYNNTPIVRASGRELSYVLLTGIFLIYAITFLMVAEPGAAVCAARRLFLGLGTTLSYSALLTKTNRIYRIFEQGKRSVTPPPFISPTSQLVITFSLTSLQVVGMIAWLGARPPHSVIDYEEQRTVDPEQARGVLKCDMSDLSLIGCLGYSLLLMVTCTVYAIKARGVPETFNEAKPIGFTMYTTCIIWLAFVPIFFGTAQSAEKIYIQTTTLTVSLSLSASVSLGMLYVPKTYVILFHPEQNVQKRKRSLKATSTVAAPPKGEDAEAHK

native mouse mGluR2 = molecular target: T2, native mouse mGluR2 (Mus musculus, UniProt Q14BI2); assay: [35S]GTPγS binding to mouse cortex; assay type: biochemical; settings: absence of glutamate
T2 construct: SAR218645 acted as a pure mGluR2 PAM at native mouse mGluR2 in the cortex; from tissue; host or cells: mouse cortex membranes
T2 sequence (Q14BI2 19-872): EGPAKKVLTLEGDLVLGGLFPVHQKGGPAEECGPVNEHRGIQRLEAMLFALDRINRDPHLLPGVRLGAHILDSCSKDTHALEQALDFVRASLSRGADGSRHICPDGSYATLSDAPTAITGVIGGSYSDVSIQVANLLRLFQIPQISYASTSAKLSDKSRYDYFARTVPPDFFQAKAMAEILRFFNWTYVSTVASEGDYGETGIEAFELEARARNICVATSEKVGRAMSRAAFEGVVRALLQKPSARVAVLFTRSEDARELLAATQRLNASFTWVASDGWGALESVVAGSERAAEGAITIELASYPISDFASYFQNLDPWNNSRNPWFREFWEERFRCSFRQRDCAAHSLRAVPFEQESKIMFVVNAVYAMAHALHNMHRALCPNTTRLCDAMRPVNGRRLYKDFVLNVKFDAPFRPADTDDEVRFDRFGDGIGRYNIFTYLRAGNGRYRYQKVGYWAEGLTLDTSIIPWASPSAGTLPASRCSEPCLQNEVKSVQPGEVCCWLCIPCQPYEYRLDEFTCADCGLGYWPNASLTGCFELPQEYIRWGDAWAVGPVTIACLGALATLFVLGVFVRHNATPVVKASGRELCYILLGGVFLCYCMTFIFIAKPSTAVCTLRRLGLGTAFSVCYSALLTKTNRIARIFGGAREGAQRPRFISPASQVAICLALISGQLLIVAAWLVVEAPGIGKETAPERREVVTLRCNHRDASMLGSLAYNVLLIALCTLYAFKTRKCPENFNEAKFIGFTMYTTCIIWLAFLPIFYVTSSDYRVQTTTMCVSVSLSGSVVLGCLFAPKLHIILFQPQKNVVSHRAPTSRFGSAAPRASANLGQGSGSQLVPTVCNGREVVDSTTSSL
Method: The assay was performed in 96-well filtration plates in 250 μl total volume. […] For termination of the reaction, the plate was filtered and dried prior to adding 50 μl Microscint 40, and counted on the 1450 TopCount Microbeta Counter. EC50 were calculated using 4-parameter curve fitting.

human mGluR2 = human mGluR2 (Homo sapiens, UniProt Q14416); assay: Multispan Allosteric Profiling panel, Ca2+ (Gqi5), control experiment; assay type: cell-based; settings: increasing concentrations of SAR218645; Gqi5 cells
Sequence of human mGluR2 (Q14416 19-872): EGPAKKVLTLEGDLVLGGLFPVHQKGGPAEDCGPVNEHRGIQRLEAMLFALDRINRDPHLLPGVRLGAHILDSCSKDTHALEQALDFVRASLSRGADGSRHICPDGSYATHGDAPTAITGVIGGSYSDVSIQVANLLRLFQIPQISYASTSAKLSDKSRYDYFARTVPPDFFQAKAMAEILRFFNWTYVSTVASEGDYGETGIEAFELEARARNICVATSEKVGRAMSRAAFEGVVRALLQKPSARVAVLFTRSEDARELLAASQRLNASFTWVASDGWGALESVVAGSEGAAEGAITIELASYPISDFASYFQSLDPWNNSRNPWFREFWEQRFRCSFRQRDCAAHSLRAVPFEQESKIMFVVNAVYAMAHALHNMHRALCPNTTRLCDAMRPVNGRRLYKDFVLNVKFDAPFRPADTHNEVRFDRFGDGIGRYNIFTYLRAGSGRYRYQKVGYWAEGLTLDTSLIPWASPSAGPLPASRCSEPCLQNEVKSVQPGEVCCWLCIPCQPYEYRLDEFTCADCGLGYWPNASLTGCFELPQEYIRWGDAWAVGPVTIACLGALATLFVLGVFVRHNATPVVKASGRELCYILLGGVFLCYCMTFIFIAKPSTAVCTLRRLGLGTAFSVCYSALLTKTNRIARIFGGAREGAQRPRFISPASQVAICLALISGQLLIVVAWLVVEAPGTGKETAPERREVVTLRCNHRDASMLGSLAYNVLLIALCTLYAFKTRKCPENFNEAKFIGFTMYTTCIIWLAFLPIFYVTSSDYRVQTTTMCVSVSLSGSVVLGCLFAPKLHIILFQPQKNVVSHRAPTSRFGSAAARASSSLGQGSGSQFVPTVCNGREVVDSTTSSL

NMDA Nr1neo−/− mice = assay: Y-maze test; assay type: in vivo
Method: The apparatus consisted of 3 arms in gray PVC in the shape of a Y. Arms were 28 cm long, 6 cm wide with walls 15 cm high. Movement was tracked manually using in-house software by an experimenter located in an adjacent room via a camera mounted directly above the maze. The animal was placed in an arm facing the center (Arm A) for 5 min. A correct alternation occurred when the animal moved to the other 2 arms without retracing its steps (i.e. Arm A to B to C). Movements such as ABA were incorrect. Based on the movement over the entire session, the percentage of correct alternations was calculated [i.e., (Total number of alternations × 100)/(Total number of arm entries-2)]. SAR218645 was administered po at 0.1 mg/kg 60 min prior to testing to either wild-type or NMDA Nr1^neo−/− mice. No dose-response effect was investigated due to the limited number of transgenic animals available. Statistics performed on total arm entries and percentage alternation consisted of using a two-way ANOVA, followed by a post-hoc Winer test for individual comparisons. Student’s t-test was used to compare the performance of each group with the chance level. Ten to eleven animals per group were used.

For `CC1(C)CCc2cc(OC[C@@H]3Cn4ccc(=O)nc4O3)ccc21` [SAR218645, (S)-2-(1,1-dimethyl-indan-5-yloxymethyl)-2,3-dihydro-oxazolo[3,2-a]pyrimidin-7-one], the “effect on locomotor activity” value (Swiss mice; amphetamine 2 mg/kg ip, SAR218645 po) was “no effects”, the Minimal active dose (Swiss mice; dose-range 0.1–10, po, Swiss mice) was over 10 mg/kg and the Tonic seizures (OF1 mice; 30 mg/kg ip) was 100%. The Minimal active dose (OF1 mice; 30, ip, OF1 mice) was over 30 mg/kg, the Minimal active dose (C57BL/6J mice) was 1 mg/kg and the “effect on glutamate-induced activation” value (human mGluR6; 10 μM SAR218645) was “no effect”. The “calcium response to compound alone” value (human mGluR6; SAR218645 alone) was “did not elicit a calcium response”, the intrinsic activity (native mouse mGluR2) was “did not have any intrinsic activity” and the “effect on glutamate response” value (human mGluR2) was “leftward shift”. For the same compound, the “spontaneous alternations versus saline-treated transgenic animals” value (NMDA Nr1neo−/− mice; 0.1 mg/kg po, P < 0.05) was “significantly more spontaneous alternations” and the Minimal active dose (NMDA Nr1neo−/− mice; 0.1, po) was 0.1 mg/kg.
